Article PMC11489226 (Archives of Toxicology, 2024)
“And” between values parts separate entries of the source, which are not always exact repeats. Identical values can stand only once.

What was measured:
CYP3A4 = CYP3A4 (Homo sapiens, UniProt P08684); assay: Metabolism in transgenic HEK293 cells expressing CYP3A4; conditions: 24 h; for Quantification of metabolites generated from PCB28, 52, and 101: 20 µM parent PCB, supernatant
Description: (§1) For the generation of transgenic cell lines, we used semi-adherent HEK293 cells (DSMZ, ACC305, human embryonic kidney cells) which were cultured on a daily basis in DMEM medium supplemented with 10% (FCS) and 1% penicillin/streptomycin. In a first step CYP1A2, CYP2C8, CYP2C9, CYP3A4, CYP2A6, and CYP2E1 cDNA were cloned into the plasmid pcDNATM3.1/V5-His TOPO® using human liver RNA as a template and using the following primers: CYP1A2 for5′-[…]-3′, CYP1A2 rev 5′-[…]-3′; CYP2C8 for 5′-[…]-3′, CYP2C8 rev 5′-[…]-3′; CYP2C9 for 5′-[…]-3′, CYP2C9 rev 5′-[…]-3′; CYP3A4 for 5′-[…]-3′, CYP3A4 rev 5′-[…]-3′, CYP2A6 for 5′-[…]-3′, CYP2A6 rev 5′-[…]-3′; CYP2E1 for 5′-[…]-3′, CYP2E1 rev 5′-[…]-3′. Final constructs were verified with Sanger DNA sequencing and restriction digestion. For transfection, 3 × 10^6 HEK293 cells were pre-incubated in a 10 cm dish in DMEM medium with 10% FCS, but without antibiotics, for 18 to 24 h. When the cells reached approximately 70% confluency, they were transfected using TransIT-LT1 transfection reagent (Biozol, Eiching, Germany). The TransIT-LT1 reagent was warmed to room temperature and vortexed. 1.63 mL Opti-MEM, 16.25 µL plasmid DNA (1 µg/µL), and 48.75 µL TransIT-LT1 reagent were mixed and incubated for 15 to 30 min. The mixture was then added dropwise to the medium of the cells, and the cells were incubated again at 37 °C and 5% CO2. After 24 h, the medium was replaced with standard medium and geneticin was added for selection (1 mg/mL). Cells were selected for 6–8 weeks in bulk culture, and single cell clones were obtained subsequently by limiting dilution. Each clone was checked for insertion by PCR using genomic DNA as a template.
(§2) Parallel samples were run without the addition of PCBs. At a confluence of 80%, PCBs (20 μM each, dissolved in ethanol) were added and cells were incubated for 24 h before harvest of supernatants. Supernatants were diluted 1:2 with 80 μL acetate buffer 0.1 M (pH = 5.3). 100 μL of this dilution were further incubated with 100 μL of ammonium acetate buffer 0.1 M (pH = 5.3) and 5 μL of β-Glucuronidase/Arylsulfatase enzyme overnight in a drying oven at 37 °C for enzymatic hydrolysis to release conjugated compounds. 50 μL of a mix of internal standards (10 ng/mL) and 600 μL of methanol were added to the samples, then mixed by vortexing for 1 min and centrifuged for 10 min at 3400g. The individual supernatants were transferred to glass LC vials and evaporated to approximately 50 μL at 45 °C under a gentle stream of nitrogen. Finally, 0.1 mol/ L ammonium acetate buffer was added to a final volume of 100 μL and then transferred to an insert for analysis.
(§3) HEK293 cells overexpressing the respective CYP enzymes were seeded onto 6-well plates and were treated with or without 10 µM of the respective probe drug in DMEM medium for 24 hours at 37 °C and 5 % CO2. After incubation 200 µL DMEM were collected, cells were washed with PBS and adherent cells were lysed in 500 µL methanol for 20 minutes. Analytes were measured by LC-MS/MS either in methanol cell lysates or in DMEM supernatant.
(§4) 50 µL of DMEM samples were protein precipitated by adding 200 µL of methanol and were centrifuged for 20 min, 17,000 g and 4°C. Supernatants were diluted in water or 40 % methanol according to dilution factor. Methanol cell lysates were diluted ½ with water and centrifuged for 20 min, 17,000 g and 4°C. 5 µL of the processed samples were injected for LC-MS analysis.

CYP2A6 = target: T1, CYP2A6 (Homo sapiens, UniProt P11509); assay: Metabolism in transgenic HEK293 cells expressing CYP2A6; format: in vitro ADME; set-up: V5-His (vector-encoded) (C); expressed in transfected cells; conditions: 24 h; for Quantification of metabolites generated from PCB28, 52, and 101 / Metabolite concentration formed, range across cell clones: 20 µM parent PCB; for Quantification of metabolites generated from PCB28, 52, and 101: supernatant; for Metabolite concentration formed, range across cell clones: HEK293CYP2A6 cell lines
T1 sequence (P11509 1-494): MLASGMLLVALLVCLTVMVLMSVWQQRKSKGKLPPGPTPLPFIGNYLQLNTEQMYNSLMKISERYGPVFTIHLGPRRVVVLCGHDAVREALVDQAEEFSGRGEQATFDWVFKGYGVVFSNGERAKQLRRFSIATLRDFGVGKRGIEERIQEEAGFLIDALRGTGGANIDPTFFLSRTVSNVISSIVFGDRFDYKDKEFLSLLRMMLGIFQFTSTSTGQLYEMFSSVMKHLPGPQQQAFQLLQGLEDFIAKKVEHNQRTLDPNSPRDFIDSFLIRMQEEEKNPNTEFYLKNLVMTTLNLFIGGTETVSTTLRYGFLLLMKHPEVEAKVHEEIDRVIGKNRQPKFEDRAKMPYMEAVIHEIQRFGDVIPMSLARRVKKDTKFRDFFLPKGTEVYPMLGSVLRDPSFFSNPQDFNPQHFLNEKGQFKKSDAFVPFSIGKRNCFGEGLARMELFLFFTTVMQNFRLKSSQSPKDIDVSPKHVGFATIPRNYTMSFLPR
Description: as §1, §2, §3, §4

CYP2E1 = CYP2E1 (Homo sapiens, UniProt P05181); assay: Metabolism in transgenic HEK293 cells expressing CYP2E1; conditions: 20 µM parent PCB, 24 h, supernatant
Description: as §1, §2, §3, §4

[1] = PCB concentrations in plasma of HELPcB participants (2010); format: in vivo, human; conditions: sample of 2010; for concentration at 2010 calendar year / concentration at 2010 calendar year of sampling: human, plasma, other: occupational exposure

Chain of CYP3A4 (P08684 whole entry): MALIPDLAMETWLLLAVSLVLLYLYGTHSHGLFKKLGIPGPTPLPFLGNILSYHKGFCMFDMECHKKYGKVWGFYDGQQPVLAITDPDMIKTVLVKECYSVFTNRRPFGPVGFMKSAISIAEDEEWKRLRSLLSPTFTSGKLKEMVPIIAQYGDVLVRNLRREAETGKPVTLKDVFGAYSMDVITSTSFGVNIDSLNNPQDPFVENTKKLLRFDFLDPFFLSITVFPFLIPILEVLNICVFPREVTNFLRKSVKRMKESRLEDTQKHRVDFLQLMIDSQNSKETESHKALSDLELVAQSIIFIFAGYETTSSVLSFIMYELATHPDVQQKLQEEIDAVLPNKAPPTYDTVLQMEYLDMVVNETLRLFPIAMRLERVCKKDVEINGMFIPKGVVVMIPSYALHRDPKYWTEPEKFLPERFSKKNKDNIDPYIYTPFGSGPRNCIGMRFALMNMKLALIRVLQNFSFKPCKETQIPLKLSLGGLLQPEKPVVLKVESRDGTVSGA
Chain of CYP2E1 (P05181 whole entry): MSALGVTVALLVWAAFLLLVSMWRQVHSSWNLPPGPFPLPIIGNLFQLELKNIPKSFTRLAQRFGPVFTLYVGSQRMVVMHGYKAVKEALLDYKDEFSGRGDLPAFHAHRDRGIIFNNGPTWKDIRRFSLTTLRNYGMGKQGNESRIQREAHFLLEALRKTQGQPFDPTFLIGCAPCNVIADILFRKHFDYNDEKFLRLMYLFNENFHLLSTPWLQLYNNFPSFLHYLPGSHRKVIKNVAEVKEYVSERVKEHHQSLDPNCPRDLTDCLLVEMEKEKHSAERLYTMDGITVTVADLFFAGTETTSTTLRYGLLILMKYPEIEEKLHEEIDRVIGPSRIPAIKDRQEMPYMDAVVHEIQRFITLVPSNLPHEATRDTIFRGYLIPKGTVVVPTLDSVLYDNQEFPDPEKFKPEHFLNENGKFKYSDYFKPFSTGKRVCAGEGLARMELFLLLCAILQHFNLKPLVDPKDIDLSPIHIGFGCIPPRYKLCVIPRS

## Oc1cc(Cl)c(-c2cc(Cl)c(Cl)cc2Cl)cc1Cl [4´-OHCB101, 2,2′,4,5,5′-Pentachloro-4′-biphenylol]
CYP3A4; CYP3A4 Clone D10
  Quantification of metabolites generated from PCB28, 52, and 101: <LOQ
CYP3A4; CYP3A4 Clone E6
  Quantification of metabolites generated from PCB28, 52, and 101: <LOQ
CYP2A6; CYP2A6 Clone B7
  Quantification of metabolites generated from PCB28, 52, and 101: 441,30 nM
CYP2A6; CYP2A6 Clone C4
  Quantification of metabolites generated from PCB28, 52, and 101: 272,55 nM
CYP2A6; CYP2A6 Clone C5
  Quantification of metabolites generated from PCB28, 52, and 101: 55,93 nM
CYP2A6
  Metabolite concentration formed, range across cell clones: 19.15- 151.1 µg/L and 55.93–441.3 nM
CYP2E1; CYP2E1 Clone B4
  Quantification of metabolites generated from PCB28, 52, and 101: 3,84 nM
CYP2E1; CYP2E1 Clone B5
  Quantification of metabolites generated from PCB28, 52, and 101: 4,02 nM
CYP2E1; CYP2E1 Clone E6
  Quantification of metabolites generated from PCB28, 52, and 101: 5,08 nM

## Clc1cc(Cl)c(-c2ccc(Cl)c(Cl)c2Cl)cc1Cl [PCB138]
[1]; HELPcB participant AD
  Concentration in plasma: 0.984 ng/mL
[1]; HELPcB participant AE
  Concentration in plasma: 0.773 ng/mL
[1]; HELPcB participant eight
  Concentration in plasma: 0.358 ng/mL
[1]; HELPcB participant five
  Concentration in plasma: 1.886 ng/mL
[1]; HELPcB participant four
  Concentration in plasma: 0.610 ng/mL
[1]; HELPcB participant one
  Concentration in plasma: 2.083 ng/mL
[1]; HELPcB participant seven
  Concentration in plasma: 0.738 ng/mL
[1]; HELPcB participant six
  Concentration in plasma: 14.883 ng/mL
[1]; HELPcB participant three
  Concentration in plasma: 1.047 ng/mL
[1]; HELPcB participant two
  Concentration in plasma: 0.718 ng/mL

## Clc1cc(Cl)c(-c2cc(Cl)c(Cl)c(Cl)c2Cl)cc1Cl [PCB180]
[1]; HELPcB participant AD
  concentration at 2010 calendar year: 1.16 ng/mL
[1]; HELPcB participant AE
  concentration at 2010 calendar year: 1.28 ng/mL
[1]; HELPcB participant eight
  concentration at 2010 calendar year: 0.377 ng/mL
[1]; HELPcB participant five
  concentration at 2010 calendar year: 0.951 ng/mL
[1]; HELPcB participant four
  concentration at 2010 calendar year: 0.508 ng/mL
[1]; HELPcB participant one
  concentration at 2010 calendar year of sampling: 0.998 ng/mL
[1]; HELPcB participant seven
  concentration at 2010 calendar year: 0.934 ng/mL
[1]; HELPcB participant six
  concentration at 2010 calendar year: 8.85 ng/mL
[1]; HELPcB participant three
  concentration at 2010 calendar year: 0.95 ng/mL
[1]; HELPcB participant two
  concentration at 2010 calendar year of sampling: 0.612 ng/mL

## O=c1ccc2ccccc2o1 [Coumarin, reference compound]
CYP2A6; HEK293CYP2A6, 10 µM substrate
  Conversion product: 7-hydroxycoumarin

## Clc1cc(Cl)c(-c2cc(Cl)c(Cl)cc2Cl)cc1Cl [PCB153]
[1]; HELPcB participant AD
  Concentration in plasma: 1.397 ng/mL
[1]; HELPcB participant AE
  Concentration in plasma: 1.227 ng/mL
[1]; HELPcB participant eight
  Concentration in plasma: 0.59 ng/mL
[1]; HELPcB participant five
  Concentration in plasma: 1.765 ng/mL
[1]; HELPcB participant four
  Concentration in plasma: 0.855 ng/mL
[1]; HELPcB participant one
  Concentration in plasma: 1.907 ng/mL
[1]; HELPcB participant seven
  Concentration in plasma: 1.081 ng/mL
[1]; HELPcB participant six
  Concentration in plasma: 15.630 ng/mL
[1]; HELPcB participant three
  Concentration in plasma: 1.254 ng/mL
[1]; HELPcB participant two
  Concentration in plasma: 0.945 ng/mL

## Cc1ncc2n1-c1ccc(Cl)cc1C(c1ccccc1F)=NC2 [Midazolam, reference compound]
CYP3A4; HEK293CYP3A4, 10 µM substrate
  Conversion product: 1-hydroxy-midazolam

## Oc1cc(Cl)cc(-c2cc(Cl)c(Cl)cc2Cl)c1Cl [3´-OHCB101, 2,2′,4,5,5′-pentachloro-3′-biphenylol]
CYP3A4; CYP3A4 Clone D10
  Quantification of metabolites generated from PCB28, 52, and 101: <LOQ
CYP3A4; CYP3A4 Clone E6
  Quantification of metabolites generated from PCB28, 52, and 101: <LOQ
CYP2A6; CYP2A6 Clone B7
  Quantification of metabolites generated from PCB28, 52, and 101: 39,4 nM
CYP2A6; CYP2A6 Clone C4
  Quantification of metabolites generated from PCB28, 52, and 101: 24,09 nM
CYP2A6; CYP2A6 Clone C5
  Quantification of metabolites generated from PCB28, 52, and 101: 4,2 nM
CYP2A6
  Metabolite concentration formed, range across cell clones: 1.44–13.5 µg/L and 4.2–39.4 nM
CYP2E1; CYP2E1 Clone B4
  Quantification of metabolites generated from PCB28, 52, and 101: <LOQ
CYP2E1; CYP2E1 Clone B5
  Quantification of metabolites generated from PCB28, 52, and 101: <LOQ
CYP2E1; CYP2E1 Clone E6
  Quantification of metabolites generated from PCB28, 52, and 101: <LOQ
